{"source": "patent US20070004735A1", "about": "“Method for inhibiting the replication of herpes viruses” (priority 2003, published 2007)", "key": {"[1]": {"tested_on": "HCMV Davis or HCMV AD169", "assay": "HCMV Xenograft Gelfoam model", "type": "in vivo, immunodeficient mice", "details": "oral treatment over 8 days, infectious virus particles vs placebo-treated control; approximate results", "excerpt": "3-4-week old female immunodeficient mice (16-18 g), Fox Chase SCID or Fox Chase SCID-NOD or SCID beige, are purchased from commercial breeders (Bomholtgaard, Jackson, USA). The animals are housed under sterile conditions (including bedding and feed) in isolators.\nCollagen sponges 1×1×1 cm in size (Gelfoam®; from Peasel & Lorey, order No. 407534; K. T. Chong et al., Abstracts of 39th Interscience Conference on Antimicrobial Agents and Chemotherapy, 1999, p. 439) are initially wetted with phosphate-buffered saline (PBS), the trapped air bubbles are removed by degassing, and then stored in MEM+10% FCS. 1×10^6 virus-infected NHDF cells (infection with HCMV Davis or HCMV AD169 M.O.I.=0.03) are detached 3 hours after infection and added in a drop of 20 μl of MEM, 10% FCS, to a moist sponge. 12-13 hours later, the infected sponges are incubated with 25 μl of PBS/0.1% BSA/1 mM DTT with 5 ng/μl basic fibroblast growth factor (bFGF). For the transplantation, the immunodeficient mice are anesthetized with Avertin or a ketamine/xylazine/azepromazine mixture, the fur on the back is removed using a shaver, the epidermis is opened 1-2 cm, unstressed and the moist sponges are transplanted under the dorsal skin. The surgical wound is closed with tissue glue. 6 hours after the transplantation, the mice are treated for the first time (one treatment is given on the day of the operation). On subsequent days, oral treatment with the substance is carried out three times a day (7.00 h and 14.00 h and 19.00 h), twice a day (8 h and 18 h) or once a day (14 h) over a period of 8 days. The daily dose is for example 3 or 10 or 30 or 60 or 100 mg/kg of body weight, the volume administered is 10 ml/kg of body weight. The substances are formulated in the form of a 0.5% strength Tylose suspension with 2% DMSO or a 0.5% strength Tylose suspension. […] The number of infectious virus particles after the substance treatment compared with the placebo-treated control group is determined."}, "[2]": {"tested_on": "Human cytomegalovirus (HCMV)", "assay": "Anti-HCMV cytopathogenicity test", "type": "cell-based", "details": "for IC50: Human betaherpesvirus 5, 144 h, NHDF cells, 6 days, cytopathogenic effect, read-out: IC50, antiviral activity in vitro; for SI (selectivity index): antiviral activity in vitro", "procedure": "Human cytomegalovirus (HCMV), DavisSmith (ATCC VR807) or AD169 (ATCC VR538) strain, is grown in vitro on human embryonic prepuce fibroblasts (NHDF cells). After the NHDF cells have been infected with a multiplicity of infection (M.O.I.) of 0.01, the virus-infected cells are harvested 5-10 days later and stored in the presence of minimal essential medium (MEM), 10% fetal calf serum (FCS) with 10% DMSO at −80° C. A cell-free stock is produced by removing only the cell culture supernatant and immediately freezing at −80° C. After serial ten-fold dilutions of the virus-infected cells or of the cell culture supernatant of the virus-infected cells (cell-free virus), the titer is determined on 24-well plates of confluent NHDF cells after vital staining with neutral red.\n(§1) The test compounds are employed as 50 millimolar (mM) solutions in dimethyl sulfoxide (DMSO). Ganciclovir®, Foscarnet® and Cidofovir® are used as reference compounds. After addition of in each case 2 μl of the 50, 5, 0.5 and 0.05 mM DMSO stock solutions to 98 μl portions of cell culture medium in row 2 A-H for duplicate determinations, 1:2 dilutions are carried out with 50 μl portions of medium up to row 11 of the 96-well plate. The wells in rows 1 and 12 each contain 50 μl of medium. 150 μl of a suspension of 1×10^4 cells (human prepuce fibroblasts [NHDF]) are then pipetted into each of the wells (row 1=cell control) and, in rows 2-12, a mixture of HCMV-infected and uninfected NHDF cells (M.O.I.=0.001-0.002), i.e. 1-2 infected cells per 1000 uninfected cells. Row 12 (without substance) serves as virus control. The final test concentrations are 250-0.0005 μM. The plates are incubated at 37° C./5% CO2 for 6 days, i.e. until all the cells are infected in the virus controls (100% cytopathogenic effect [CPE]). The wells are then fixed and stained by adding a mixture of formalin and Giemsa's dye (30 minutes), washed with double-distilled water and dried in a drying oven at 50° C. The plates are then assessed visually using an overhead microscope (plaque multiplier from Technomara)."}, "[3]": {"tested_on": "HCMV AD169 clone with mutation in UL86 A689T", "assay": "Susceptibility (IC50) of resistant HCMV AD169 clone A689T", "type": "cell-based, Human cytomegalovirus", "details": "Human betaherpesvirus 5, read-out: IC 50, A689T", "procedure": "as §1\n(§2) For this purpose, NHDF cells are seeded in tissue culture vessels. 5×10^3 cells per well are seeded in 96-well plates and infected with cell-free HCMV AD169 with an moi of 0.03. The infections are cultivated under substance pressure which corresponds to 10 times the IC50 of the substance. Preferably, 30-100 96-well plates inoculated as described are made up. […] Finally, viral stocks are produced as described above and frozen. Serial ten-fold dilution of the virus-infected cells or of the cell culture supernatant of the virus-infected cells is followed by determination of the titer on 24-well plates of confluent NHDF cells after vital staining with neutral red. Finally, the susceptibility to various substances (IC50 determination) is determined as described above.\n(§3) The HCMVAD169 mutants selected as described above are grown in vitro on human embryonic prepuce fibroblasts (NHDF cells) under substance pressure (10×IC50 HCMVAD169). After infection of the NHDF cells with a multiplicity of infection (M.O.I) of 0.01, the virus-infected cells are harvested 5-10 days later, and the total DNA is isolated from these cells with the aid of established standard methods (e.g. phenol extraction and ethanol precipitation). Qiagen Sequencing Services (Qiagen, Hilden) determined, after amplification of the viral UL86 gene by PCR, the DNA sequence, which was then transcribed into protein sequence. Compared with the initial strain HCMV AD169, the differences shown in table 2 were detectable in the protein sequence of the major capsid protein (UL86) in the resistant viruses. The IC50 values [μM] of various substances on these mutants compared with the initial strain are likewise indicated. (n.d.=not measured). […] Depending on the nature of the substance, certain mutations lead to various extents of resistance."}, "[4]": {"tested_on": "HCMV AD169 clone with mutation in UL86 Q1223R", "assay": "Susceptibility (IC50) of resistant HCMV AD169 clone Q1223R", "type": "cell-based, Human cytomegalovirus", "details": "Human betaherpesvirus 5, read-out: IC 50, Q1223R", "procedure": "as §1, §2, §3"}}}
{"smiles": "CC1(C)CC(=O)NN=C1c1cccc(NC(=O)Nc2ccc(F)cc2F)c1", "note": "[Example 1, N-(2,4-Difluorophenyl)-N′-[3-(4,4-dimethyl-6-oxo-1,4,5,6-tetrahydro-3-pyridazinyl)phenyl]urea]", "values": [{"measurement": "ED50, antiviral activity in vivo", "setting": "[1]", "result": 50, "unit": "mg/kg/day"}, {"measurement": "IC50", "setting": "[2]", "result": 1000, "unit": "nM"}, {"measurement": "SI (selectivity index)", "setting": "[2]", "result": 125}, {"measurement": "IC50", "setting": "[3]", "result": 6000, "unit": "nM"}, {"measurement": "IC50", "setting": "[4]", "result": 20000, "unit": "nM"}]}
{"smiles": "CC1(C)CC(=O)NN=C1c1cc(NC(=O)Nc2cc(F)ccc2F)ccc1O", "note": "[Example 2, N-(2,5-Difluorophenyl)-N′-[3-(4,4-dimethyl-6-oxo-1,4,5,6-tetrahydro-3-pyridazinyl)-4-hydroxyphenyl]urea]", "values": [{"measurement": "ED50, antiviral activity in vivo", "setting": "[1]", "result": 45, "unit": "mg/kg/day"}, {"measurement": "IC50", "setting": "[2]", "result": 400, "unit": "nM"}, {"measurement": "SI (selectivity index)", "setting": "[2]", "result": 325}, {"measurement": "IC50", "setting": "[3]", "result": 1000, "unit": "nM"}, {"measurement": "IC50", "setting": "[4]", "result": 6000, "unit": "nM"}]}
{"smiles": "CCCCC(=O)Nc1ccc(NC(=O)Nc2ccc(F)c(Cl)c2)cc1", "note": "[Example 4, N-[4-({[(3-Chloro-4-fluorophenyl)amino]carbonyl}amino)phenyl]pentanamide]", "values": [{"measurement": "ED50, antiviral activity in vivo", "setting": "[1]", "result": 70, "unit": "mg/kg/day"}, {"measurement": "IC50", "setting": "[2]", "result": 80, "unit": "nM"}, {"measurement": "SI (selectivity index)", "setting": "[2]", "result": 750}, {"measurement": "IC50", "setting": "[3]", "result": 500, "unit": "nM"}, {"measurement": "IC50", "setting": "[4]", "result": 1000, "unit": "nM"}]}
